Test results published in PubChem BioAssay (NCI).
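Where inhibition never reached the appropriate level, the endpoint shown equals the highest concentration tested. Otherwise, values were interpolated linearly from a five-concentration, 48-hour dose response in 96-well plates. Definition used: TGI = concentration required for complete inhibition of growth.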

Columns and labels:
Test in all cases: NCI-60 cell line screen, 48 h
[1] = tested on: NCI/ADR-RES ovarian
[2] = tested on: KM12 colon
[3] = tested on: HCC-2998 colon
[4] = tested on: HCT-116 colon
[5] = tested on: M14 melanoma
[6] = tested on: EKVX NSCLC
[7] = tested on: MOLT-4 leukemia
[8] = tested on: MALME-3M melanoma
[9] = tested on: HS 578T breast
[10] = tested on: UO-31 renal
[11] = tested on: MCF7 breast
[12] = tested on: DU-145 prostate
[13] = tested on: A498 renal
[14] = tested on: LOX IMVI melanoma
[15] = tested on: OVCAR-4 ovarian
[16] = tested on: CAKI-1 renal
[17] = tested on: CCRF-CEM leukemia
[18] = tested on: MDA-MB-435
[19] = tested on: HT29 colon
[20] = tested on: OVCAR-5 ovarian
[21] = tested on: NCI-H460 lung
[22] = tested on: SW-620 colon
[23] = tested on: NCI-H23 lung
[24] = tested on: MDA-N
[25] = tested on: SF-295 CNS
[26] = tested on: OVCAR-3 ovarian
[27] = tested on: UACC-257 melanoma
[28] = tested on: RXF 393 renal
[29] = tested on: K-562 leukemia
[30] = tested on: SNB-75 CNS
[31] = tested on: SN12C renal
[32] = tested on: RPMI-8226 leukemia
[33] = tested on: HOP-92 NSCLC
[34] = tested on: NCI-H522 lung
[35] = tested on: SF-268 CNS
[36] = tested on: SK-MEL-28 melanoma
[37] = tested on: PC-3 prostate
[38] = tested on: SK-MEL-2 melanoma
[39] = tested on: HL-60(TB) leukemia
[40] = tested on: IGROV1 ovarian
[41] = tested on: TK-10 renal
[42] = tested on: BT-549 breast
[43] = tested on: HCT-15 colon
[44] = tested on: A549 NSCLC
[45] = tested on: SK-OV-3 ovarian
[46] = tested on: UACC-62 melanoma
[47] = tested on: SNB-19 CNS
[48] = tested on: SF-539 CNS
[49] = tested on: U251 CNS
[50] = tested on: 786-0 renal
[51] = tested on: OVCAR-8 ovarian
[52] = tested on: HOP-62 NSCLC
[53] = tested on: COLO 205 colon
[54] = tested on: ACHN renal
[55] = tested on: MDA-MB-231 breast
[56] = tested on: T-47D breast
[57] = tested on: SK-MEL-5 melanoma
[58] = tested on: NCI-H226 lung
[59] = tested on: SR leukemia

## COc1ccc(C(=O)N(C(=S)OCCOc2ccccc2)c2ccccc2)cc1
[1]
  TGI: > 100 µM
[2]
  TGI: > 100 µM
[3]
  TGI: > 100 µM
[4]
  TGI: > 100 µM
[5]
  TGI: > 100 µM
[6]
  TGI: 96.6 µM
[7]
  TGI: 53.8 µM
[8]
  TGI: 88.5 µM
[9]
  TGI: > 100 µM
[10]
  TGI: 29.9 µM
[11]
  TGI: > 100 µM
[12]
  TGI: > 100 µM
[13]
  TGI: 73.9 µM
[14]
  TGI: > 100 µM
[15]
  TGI: > 100 µM
[16]
  TGI: > 100 µM
[17]
  TGI: 66.3 µM
[18]
  TGI: > 100 µM
[19]
  TGI: > 100 µM
[20]
  TGI: > 100 µM
[21]
  TGI: > 100 µM
[22]
  TGI: > 100 µM
[23]
  TGI: > 100 µM
[24]
  TGI: > 100 µM
[25]
  TGI: > 100 µM
[26]
  TGI: > 100 µM
[27]
  TGI: > 100 µM
[28]
  TGI: 98.5 µM
[29]
  TGI: > 100 µM
[30]
  TGI: 27.9 µM
[31]
  TGI: > 100 µM
[32]
  TGI: 37.9 µM
[33]
  TGI: 70.4 µM
[34]
  TGI: > 100 µM
[35]
  TGI: > 100 µM
[36]
  TGI: > 100 µM
[37]
  TGI: > 100 µM
[38]
  TGI: 68.5 µM
[39]
  TGI: 51.9 µM
[40]
  TGI: > 100 µM
[41]
  TGI: > 100 µM
[42]
  TGI: > 100 µM
[43]
  TGI: > 100 µM
[44]
  TGI: > 100 µM
[45]
  TGI: > 100 µM
[46]
  TGI: > 100 µM
[47]
  TGI: > 100 µM
[48]
  TGI: > 100 µM
[49]
  TGI: > 100 µM
[50]
  TGI: > 100 µM
[51]
  TGI: > 100 µM
[52]
  TGI: > 100 µM
[53]
  TGI: > 100 µM
[54]
  TGI: > 100 µM
[55]
  TGI: > 100 µM
[56]
  TGI: 55.4 µM

## Cc1ccc(S(=O)(=O)n2c3c(c4ccccc42)CCN2CCC(Br)C[C@@H]32)cc1 (some centres not stated)
[1]
  TGI: 32.5 µM
[2]
  TGI: 21.1 µM
[3]
  TGI: 28.4 µM
[5]
  TGI: 25.9 µM
[6]
  TGI: 38.1 µM
[7]
  TGI: 25.8 µM
[8]
  TGI: 26.1 µM
[9]
  TGI: 28.5 µM
[10]
  TGI: 24.2 µM
[11]
  TGI: 22.8 µM
[12]
  TGI: 29.1 µM
[13]
  TGI: 41 µM
[14]
  TGI: 27.6 µM
[15]
  TGI: 27 µM
[16]
  TGI: 28.6 µM
[17]
  TGI: 35.2 µM
[18]
  TGI: 14.4 µM
[19]
  TGI: 26.3 µM
[20]
  TGI: 31.9 µM
[21]
  TGI: 30.1 µM
[22]
  TGI: 26.1 µM
[23]
  TGI: 26.6 µM
[24]
  TGI: 15.8 µM
[25]
  TGI: 23.1 µM
[57]
  TGI: 20.2 µM
[26]
  TGI: 23.6 µM
[58]
  TGI: 27.9 µM
[27]
  TGI: 21.1 µM
[28]
  TGI: 26.1 µM
[29]
  TGI: 18.6 µM
[30]
  TGI: 25.4 µM
[32]
  TGI: 24.4 µM
[33]
  TGI: 32.4 µM
[34]
  TGI: 18.6 µM
[35]
  TGI: 30.8 µM
[36]
  TGI: 24.5 µM
[37]
  TGI: 26.3 µM
[38]
  TGI: 31.7 µM
[39]
  TGI: 17.4 µM
[59]
  TGI: 19.2 µM
[40]
  TGI: 22.3 µM
[41]
  TGI: 29.4 µM
[43]
  TGI: 24.4 µM
[44]
  TGI: 31.4 µM
[45]
  TGI: 31.9 µM
[46]
  TGI: 25.3 µM
[47]
  TGI: 28.7 µM
[48]
  TGI: 31.5 µM
[49]
  TGI: 24.9 µM
[50]
  TGI: 30.2 µM
[51]
  TGI: 25.1 µM
[52]
  TGI: 28.5 µM
[53]
  TGI: 30.2 µM
[54]
  TGI: 34.8 µM
[55]
  TGI: 31.3 µM
[56]
  TGI: 21.8 µM

## CN(CCCN(C)CCc1ccc(Cl)c(Cl)c1)CCCN1CCCC1
[1]
  TGI: 19.8 µM
[2]
  TGI: 7.99 µM
[3]
  TGI: 0.82 µM
[4]
  TGI: 4.11 µM
[5]
  TGI: 3.66 µM
[6]
  TGI: 13.7 µM
[7]
  TGI: 12.4 µM
[8]
  TGI: 3.83 µM
[9]
  TGI: 4.31 µM
[10]
  TGI: 2.76 µM
[11]
  TGI: 3.69 µM
[12]
  TGI: 21.4 µM
[13]
  TGI: 3.37 µM
[14]
  TGI: 3.54 µM
[15]
  TGI: 20.5 µM
[16]
  TGI: 6.33 µM
[17]
  TGI: 2.12 µM
[18]
  TGI: 1.42 µM
[19]
  TGI: 2.58 µM
[20]
  TGI: 15.1 µM
[21]
  TGI: 5.98 µM
[22]
  TGI: 7.96 µM
[23]
  TGI: 14.3 µM
[24]
  TGI: 2.65 µM
[25]
  TGI: 4.76 µM
[26]
  TGI: 14.8 µM
[58]
  TGI: 5.68 µM
[27]
  TGI: 3.46 µM
[28]
  TGI: 4.58 µM
[29]
  TGI: 1.3 µM
[30]
  TGI: 8.91 µM
[31]
  TGI: 11.8 µM
[32]
  TGI: 2.19 µM
[33]
  TGI: 11.5 µM
[34]
  TGI: 3.51 µM
[35]
  TGI: 7.02 µM
[36]
  TGI: 3.18 µM
[37]
  TGI: 15.1 µM
[38]
  TGI: 3.48 µM
[39]
  TGI: 4.12 µM
[40]
  TGI: 8.65 µM
[41]
  TGI: 5.52 µM
[42]
  TGI: 19 µM
[43]
  TGI: 7.22 µM
[44]
  TGI: 11.2 µM
[45]
  TGI: 23.1 µM
[46]
  TGI: 3.49 µM
[47]
  TGI: 13.7 µM
[49]
  TGI: 4.62 µM
[50]
  TGI: 2.76 µM
[51]
  TGI: 10.9 µM
[52]
  TGI: 10.5 µM
[53]
  TGI: 6.84 µM
[54]
  TGI: 19.2 µM
[55]
  TGI: 3.61 µM
[56]
  TGI: 5.94 µM

## COC(=O)C1CCC(=O)N1C(c1ccccc1)c1cc(OC)c(OC)c(OC)c1 (configuration not stated)
[1]
  TGI: > 100 µM
[2]
  TGI: > 100 µM
[3]
  TGI: > 100 µM
[4]
  TGI: > 100 µM
[5]
  TGI: > 100 µM
[6]
  TGI: > 100 µM
[7]
  TGI: 89.3 µM
[8]
  TGI: > 100 µM
[10]
  TGI: > 100 µM
[11]
  TGI: > 100 µM
[12]
  TGI: > 100 µM
[13]
  TGI: > 100 µM
[14]
  TGI: > 100 µM
[15]
  TGI: > 100 µM
[16]
  TGI: > 100 µM
[17]
  TGI: > 100 µM
[18]
  TGI: 59.7 µM
[19]
  TGI: > 100 µM
[20]
  TGI: > 100 µM
[21]
  TGI: > 100 µM
[22]
  TGI: > 100 µM
[23]
  TGI: > 100 µM
[24]
  TGI: 58.8 µM
[25]
  TGI: > 100 µM
[26]
  TGI: > 100 µM
[58]
  TGI: > 100 µM
[27]
  TGI: > 100 µM
[28]
  TGI: > 100 µM
[29]
  TGI: 49.9 µM
[31]
  TGI: > 100 µM
[33]
  TGI: > 100 µM
[34]
  TGI: > 100 µM
[35]
  TGI: > 100 µM
[36]
  TGI: > 100 µM
[37]
  TGI: > 100 µM
[39]
  TGI: 57.8 µM
[59]
  TGI: > 100 µM
[40]
  TGI: > 100 µM
[41]
  TGI: > 100 µM
[42]
  TGI: > 100 µM
[43]
  TGI: > 100 µM
[44]
  TGI: > 100 µM
[45]
  TGI: > 100 µM
[46]
  TGI: > 100 µM
[47]
  TGI: > 100 µM
[48]
  TGI: > 100 µM
[49]
  TGI: > 100 µM
[50]
  TGI: > 100 µM
[51]
  TGI: > 100 µM
[52]
  TGI: > 100 µM
[53]
  TGI: > 100 µM
[54]
  TGI: > 100 µM
[55]
  TGI: > 100 µM
[56]
  TGI: > 100 µM
